Reference: PMC12408343, “Deep learning reveals antibiotics in the archaeal proteome” (Nature Microbiology, 2025)
≈ marks a conversion by molar mass, not a printed value. Bridge positions count the residues as written; N and C are the ends. Square brackets hold non-standard residues; d marks the D form. Peptide text beside a SMILES is read from it. * marks the point of attachment. X1 = CC[C@H](C)CCCCC(=O)*; Dab = NCC[C@H](N)C(=O)O

Assays:
P. aeruginosa PA14 = experiment: microbe, parasite or virus in culture; conditions: for MIC P. aeruginosa PA14 (−): broth microdilution, LB, 1–64 μmol l^−1 two-fold dilutions, 24 h, 37 °C, OD600, mode of three independent replicates
Experimental: (§1) Briefly, 10^5 bacterial cells were incubated with serially diluted EPs (0–64 μmol l^−1) at 37 °C. Bacterial growth was assessed by measuring the optical density at 600 nm in a microplate reader at 1 day post-treatment. […] Secondary structure fractions were calculated using the BeStSel server. fH and fβ stand for helical and β fractions, respectively.

[1] = system: E. coli AIC222 (colistin-resistant, CRE); experiment: microbe, parasite or virus in culture; conditions: 24 h; for MIC E. coli AIC222 – CRE (−): colistin-resistant strain, broth microdilution, LB, 1–64 μmol l^−1 two-fold dilutions, 37 °C, OD600, mode of three independent replicates
Experimental: as §1

[2] = system: E. faecalis ATCC 700802 (VRE); experiment: Broth microdilution MIC; format: cell-based, Enterococcus faecalis; conditions: vancomycin-resistant strain, LB, 1–64 μmol l^−1 two-fold dilutions, 24 h, 37 °C, OD600, mode of three independent replicates
Experimental: as §1

A. baumannii ATCC 19606 [3] = experiment: Neutropenic deep thigh infection mouse model; format: in vivo; conditions: neutropenic female CD-1 mice, n = 6, single intraperitoneal dose 2 h after infection
Experimental: The limit of detection (LOD) for the CFU quantification is log10CFU = 2. Statistical significance in panels b and d was determined using one-way analysis of variance followed by Dunnett’s test; P values are shown in the graphs. In the violin, the centre line represents […], the box limits the 1st and 3rd quartiles, and the whiskers (minimum and maximum) represent 1.5× the interquartile range. The solid line inside each box represents […] value obtained for each group. Panels a and c created with BioRender.com. Source data
Next, we assessed the efficacy of the same lead archaeasins (archaeasin-2, archaeasin-17 and archaeasin-73) in a murine deep thigh infection model (Fig. 5c), which is widely used to assess the antibiotic potential of compounds. Mice were administered 2 rounds of cyclophosphamide treatment for immunosuppression before the intramuscular infection with 1 × 10^5 cells in 100 μl of A. baumannii. A single dose of each archaeasin (at their MIC) was delivered intraperitoneally (Fig. 5c). […] Four days post-treatment, the bacterial counts remained stable for all peptide treatment conditions and the treatments with polymyxin B and levofloxacin, while the untreated control increased by two orders of magnitude. […]

[4] = system: S. aureus ATCC BAA-1556 (MRSA); experiment: microbe, parasite or virus in culture; conditions: 24 h
Experimental: as §1

[5] = system: E. faecium ATCC 700221 (VRE); experiment: microbe, parasite or virus in culture; conditions: 24 h
Experimental: as §1

A. baumannii ATCC 19606 [6] = experiment: microbe, parasite or virus in culture; conditions: for MIC A. baumannii ATCC 19606 (−): broth microdilution, LB, 1–64 μmol l^−1 two-fold dilutions, 24 h, 37 °C, OD600, mode of three independent replicates
Experimental: as §1

S. aureus ATCC 12600 = experiment: microbe, parasite or virus in culture
Experimental: as §1

K. pneumoniae ATCC 13883 = experiment: microbe, parasite or virus in culture; conditions: for MIC K. pneumoniae ATCC 13883 (−): broth microdilution, LB, 1–64 μmol l^−1 two-fold dilutions, 24 h, 37 °C, OD600, mode of three independent replicates
Experimental: as §1

E. coli ATCC 11775 = experiment: microbe, parasite or virus in culture; conditions: for MIC E. coli ATCC 11775 (−): broth microdilution, LB, 1–64 μmol l^−1 two-fold dilutions, 24 h, 37 °C, OD600, mode of three independent replicates
Experimental: as §1

P. aeruginosa PAO1 = experiment: microbe, parasite or virus in culture; conditions: for MIC P. aeruginosa PAO1 (−): broth microdilution, LB, 1–64 μmol l^−1 two-fold dilutions, 24 h, 37 °C, OD600, mode of three independent replicates
Experimental: as §1

E. coli AIC221 = experiment: microbe, parasite or virus in culture; conditions: for MIC E. coli AIC221 (−): broth microdilution, LB, 1–64 μmol l^−1 two-fold dilutions, 24 h, 37 °C, OD600, mode of three independent replicates
Experimental: as §1

SMILES	MIC P. aeruginosa PA14 (−) (P. aeruginosa PA14)	MIC E. coli AIC222 – CRE (−) [1]	reduction of bacterial load, deep thigh infection, four days post-treatment (A. baumannii ATCC 19606 [3])	MIC A. baumannii ATCC 19606 (−) (A. baumannii ATCC 19606 [6])	MIC K. pneumoniae ATCC 13883 (−) (K. pneumoniae ATCC 13883)	MIC E. coli ATCC 11775 (−) (E. coli ATCC 11775)	MIC P. aeruginosa PAO1 (−) (P. aeruginosa PAO1)	MIC E. coli AIC221 (−) (E. coli AIC221)	other results
C[C@H]1COc2c(N3CCN(C)CC3)c(F)cc3c(=O)c(C(=O)O)cn1c23 [Levofloxacin, reference compound]	0.5 µM (≈ 0.181 µg/mL)	0.25 µM (≈ 0.0903 µg/mL)	three	1 µM (≈ 0.361 µg/mL)	1 µM (≈ 0.361 µg/mL)	0.125 µM (≈ 0.0452 µg/mL)	4 µM (≈ 1.45 µg/mL)	0.125 µM (≈ 0.0452 µg/mL)	MIC (P. aeruginosa PA14; Pseudomonas aeruginosa, PA14, 24 h, read-out: MIC P. aeruginosa PA14 (−)): 0.5 µM (≈ 0.181 µg/mL); MIC ([1]; Escherichia coli, read-out: MIC E. coli AIC222 – CRE (−)): 0.25 µM (≈ 0.0903 µg/mL); MIC ([2]; Enterococcus faecalis): 2 µM (≈ 0.723 µg/mL); MIC E. faecalis ATCC 700802 – VRE (+) [2]: 2 µM (≈ 0.723 µg/mL); MIC ([4]; Staphylococcus aureus, ATCCBAA1556|MRSA, read-out: MIC S. aureus ATCC BAA-1556 – MRSA (+)): 32 µM (≈ 11.6 µg/mL); MIC S. aureus ATCC BAA-1556 – MRSA (+) ([4]; methicillin-resistant strain, broth microdilution, LB, 1–64 μmol l^−1 two-fold dilutions, 37 °C, OD600, mode of three independent replicates): 32 µM (≈ 11.6 µg/mL); MIC ([5]; Enterococcus faecium, ATCC700221|VRE, read-out: MIC E. faecium ATCC 700221 – VRE (+)): 16 µM (≈ 5.78 µg/mL); MIC E. faecium ATCC 700221 – VRE (+) ([5]; vancomycin-resistant strain, broth microdilution, LB, 1–64 μmol l^−1 two-fold dilutions, 37 °C, OD600, mode of three independent replicates): 16 µM (≈ 5.78 µg/mL); MIC (A. baumannii ATCC 19606 [6]; Acinetobacter baumannii, ATCC19606, 24 h, read-out: MIC A. baumannii ATCC 19606 (−)): 1 µM (≈ 0.361 µg/mL); MIC (S. aureus ATCC 12600; Staphylococcus aureus, ATCC12600, 24 h, read-out: MIC S. aureus ATCC 12600 (+)): 2 µM (≈ 0.723 µg/mL); MIC S. aureus ATCC 12600 (+) (S. aureus ATCC 12600; broth microdilution, LB, 1–64 μmol l^−1 two-fold dilutions, 24 h, 37 °C, OD600, mode of three independent replicates): 2 µM (≈ 0.723 µg/mL); MIC (K. pneumoniae ATCC 13883; Klebsiella pneumoniae, ATCC13883, 24 h, read-out: MIC K. pneumoniae ATCC 13883 (−)): 1 µM (≈ 0.361 µg/mL); MIC (E. coli ATCC 11775; Escherichia coli, ATCC11775, 24 h, read-out: MIC E. coli ATCC 11775 (−)): 0.125 µM (≈ 0.0452 µg/mL); MIC (P. aeruginosa PAO1; Pseudomonas aeruginosa, PAO1, 24 h, read-out: MIC P. aeruginosa PAO1 (−)): 4 µM (≈ 1.45 µg/mL); MIC (E. coli AIC221; Escherichia coli, AIC221, 24 h, read-out: MIC E. coli AIC221 (−)): 0.125 µM (≈ 0.0452 µg/mL)
CC[C@H](C)CCCCC(=O)N[C@@H](CCN)C(=O)N[C@H](C(=O)N[C@@H](CCN)C(=O)N[C@H]1CCNC(=O)[C@H]([C@@H](C)O)NC(=O)[C@H](CCN)NC(=O)[C@H](CCN)NC(=O)[C@H](CC(C)C)NC(=O)[C@@H](Cc2ccccc2)NC(=O)[C@H](CCN)NC1=O)[C@@H](C)O [Polymyxin B, reference compound] (X1-[Dab]T[Dab][Dab][Dab][dF]L[Dab][Dab]T; lactam 4-C (inferred); N-terminus assumed)	8 µM (≈ 9.63 µg/mL)	8 µM (≈ 9.63 µg/mL)	three	0.5 µM (≈ 0.602 µg/mL)	8 µM (≈ 9.63 µg/mL)	0.25 µM (≈ 0.301 µg/mL)	4 µM (≈ 4.81 µg/mL)	0.25 µM (≈ 0.301 µg/mL)	
